# Data taken from patent US20090030024A1, “THIAZOLES AS FUNGICIDES” (priority 2005, published 2009).
# Where two headings read alike, the source gives them in different places.
# Legend:
# Phytophthora infestans = experiment: whole plant or invertebrate; type: in vivo; details: in Solanum lycopersicum, 168 h, read-out: efficacy
# [1] = logP determination by retention times (calibration with alkan-2-ones)
# [2] = logP, values marked *: HPLC on reversed-phase C 18, 40° C., mobile phase 0.1% aqueous formic acid and acetonitrile, linear gradient 10% to 95% acetonitrile
Structure (SMILES),pest or weed control at 500 ppm (Phytophthora infestans) [%],chromatographic logP [1],"chromatographic logP [1, 2]"
"COCCOC(=O)Nc1ccc(Nc2nccc(-c3sc(N)nc3C)n2)cc1 [Example 69, 2-methoxyethyl-(4-{[4-(2-amino-4-methyl-1,3-thiazol-5-yl)pyrimidin-2-yl]amino}phenyl)carbamate]",≥ 70,1.4,
"Cc1nc(C)c(-c2ccnc(Nc3ccc(F)cc3)n2)s1 [Example 186, 4-(2,4-dimethyl-1,3-thiazol-5-yl)-N-(4-fluorophenyl)pyrimidine-2-amine]",≥ 70,2.65,
"COc1cc(Nc2nccc(-c3sc(N)nc3C)n2)cc(OC)c1OC [Example 201, 4-(2-amino-4-methyl-1,3-thiazol-5-yl)-N-(3,4,5-trimethoxyphenyl)pyrimidine-2-amine]",≥ 70,1.51,
"COc1ccc(Nc2nccc(-c3sc(N)nc3C)n2)cc1Cl [Example 203, 4-(2-amino-4-methyl-1,3-thiazol-5-yl)-N-(3-chloro-4-methoxyphenyl)pyrimidine-2-amine]",≥ 70,1.63,
"Cc1nc(N)sc1-c1ccnc(Nc2ccccc2)n1 [Example 210, 4-(2-amino-4-methyl-1,3-thiazol-5-yl)-N-phenylpyrimidine-2-amine]",≥ 70,1.51,
"COCCNc1nc(C)c(-c2ccnc(Nc3ccc(F)c(F)c3)n2)s1 [Example 897, N-(3,4-difluorophenyl)-4-{2-[(2-methoxyethyl)amino]-4-methyl-1,3-thiazol-5-yl}pyrimidine-2-amine]",,,2.15
"COCCNc1nc(C)c(-c2ccnc(Nc3ccc(Cl)cc3)n2)s1 [Example 898, N-(4-chlorophenyl)-4-{2-[(2-methoxyethyl)amino]-4-methyl-1,3-thiazol-5-yl}pyrimidine-2-amine]",,,2.24
"COCCOc1nc(C)c(-c2ccnc(Nc3ccc(F)cc3)n2)s1 [Example 899, N-(4-fluorophenyl)-4-[2-(2-methoxyethoxy)-4-methyl-1,3-thiazol-5-yl]pyrimidine-2-amine]",,,3.12
"COCCOc1nc(C)c(-c2ccnc(Nc3ccccc3)n2)s1 [Example 901, 4-[2-(2-methoxyethoxy)-4-methyl-1,3-thiazol-5-yl]-N-phenylpyrimidine-2-amine]",,,3.01
"CCc1nc(C)c(-c2nc(Nc3ccccc3)ncc2Br)s1 [Example 902, 5-bromo-4-(2-ethyl-4-methyl-1,3-thiazol-5-yl)-N-phenylpyrimidine-2-amine]",,,3.82
"Cc1nc(C(C)C)sc1-c1nc(Nc2ccccc2)ncc1Cl [Example 903, 5-chloro-4-(2-isopropyl-4-methyl-1,3-thiazol-5-yl)-N-phenylpyrimidine-2-amine]",,,4.27
"Cc1nc(C(C)C)sc1-c1nc(Nc2ccccc2)ncc1Br [Example 904, 5-bromo-4-(2-isopropyl-4-methyl-1,3-thiazol-5-yl)-N-phenylpyrimidine-2-amine]",,,4.32
"CCc1nc(C)c(-c2nc(Nc3cc(OC)c(OC)c(OC)c3)ncc2Br)s1 [Example 905, 5-bromo-4-(2-ethyl-4-methyl-1,3-thiazol-5-yl)-N-(3,4,5-trimethoxyphenyl)pyrimidine-2-amine]",,,3.29
"COc1cc(Nc2ncc(Br)c(-c3sc(C)nc3C)n2)cc(OC)c1OC [Example 906, 5-bromo-4-(2,4-dimethyl-1,3-thiazol-5-yl)-N-(3,4,5-trimethoxyphenyl)pyrimidine-2-amine]",,,2.85
"CCc1nc(C)c(-c2nc(Nc3cc(OC)c(OC)c(OC)c3)ncc2Cl)s1 [Example 907, 5-chloro-4-(2-ethyl-4-methyl-1,3-thiazol-5-yl)-N-(3,4,5-trimethoxyphenyl)pyrimidine-2-amine]",,,3.2
"COc1cc(Nc2ncc(Br)c(-c3sc(C(C)C)nc3C)n2)cc(OC)c1OC [Example 908, 5-bromo-4-(2-isopropyl-4-methyl-1,3-thiazol-5-yl)-N-(3,4,5-trimethoxyphenyl)pyrimidine-2-amine]",,,3.65
"Cc1nc(C)c(-c2nc(Nc3ccccc3)ncc2Br)s1 [Example 909, 5-bromo-4-(2,4-dimethyl-1,3-thiazol-5-yl)-N-phenylpyrimidine-2-amine]",,,3.3
"COCCOc1nc(C)c(-c2ccnc(Nc3cc(OC)c(OC)c(OC)c3)n2)s1 [Example 910, 4-[2-(2-methoxyethoxy)-4-methyl-1,3-thiazol-5-yl]-N-(3,4,5-trimethoxyphenyl)pyrimidine-2-amine]",,,2.53
"COCCOc1nc(C)c(-c2ccnc(Nc3cccc([N+](=O)[O-])c3)n2)s1 [Example 911, 4-[2-(2-methoxyethoxy)-4-methyl-1,3-thiazol-5-yl]-N-(3-nitrophenyl)pyrimidine-2-amine]",,,3.08
"COCCOc1nc(C)c(-c2ccnc(Nc3cccc(C(C)=O)c3)n2)s1 [Example 912, 1-[3-({4-[2-(2-methoxyethoxy)-4-methyl-1,3-thiazol-5-yl]pyrimidin-2-yl}amino)phenyl]ethanone]",,,2.64
"COCCOc1nc(C)c(-c2ccnc(Nc3cccc(Cl)c3)n2)s1 [Example 913, N-(3-chlorophenyl)-4-[2-(2-methoxyethoxy)-4-methyl-1,3-thiazol-5-yl]pyrimidine-2-amine]",,,3.57
"COCCOc1nc(C)c(-c2ccnc(Nc3cccc(OC)c3)n2)s1 [Example 914, 4-[2-(2-methoxyethoxy)-4-methyl-1,3-thiazol-5-yl]-N-(3-methoxyphenyl)pyrimidine-2-amine]",,,2.92
"COCCOc1nc(C)c(-c2ccnc(Nc3ccc(OC)nc3)n2)s1 [Example 915, 4-[2-(2-methoxyethoxy)-4-methyl-1,3-thiazol-5-yl]-N-(6-methoxypyridin-3-yl)pyrimidine-2-amine]",,,2.34
"COCCOc1nc(C)c(-c2ccnc(Nc3ccc(C(C)=O)cc3)n2)s1 [Example 916, 1-[4-({4-[2-(2-methoxyethoxy)-4-methyl-1,3-thiazol-5-yl]pyrimidin-2-yl}amino)phenyl]ethanone]",,,2.58
"COCCOc1nc(C)c(-c2ccnc(Nc3ccc(N4CCCC4=O)cc3)n2)s1 [Example 917, 1-[4-({4-[2-(2-methoxyethoxy)-4-methyl-1,3-thiazol-5-yl]pyrimidin-2-yl}amino)phenyl]pyrrolidin-2-one]",,,2.23
"Cc1nc(C(C)C)sc1-c1ccnc(Nc2cccnc2)n1 [Example 919, 4-(2-isopropyl-4-methyl-1,3-thiazol-5-yl)-N-pyridin-3-ylpyrimidine-2-amine]",,,1.51
"CCc1nc(C)c(-c2nc(Nc3cccc(Cl)c3)ncc2Br)s1 [Example 920, 5-bromo-N-(3-chlorophenyl)-4-(2-ethyl-4-methyl-1,3-thiazol-5-yl)pyrimidine-2-amine]",,,4.36
"CCc1nc(C)c(-c2nc(Nc3ccc(S(=O)(=O)N(C)C)cc3)ncc2Br)s1 [Example 921, 4-{[5-bromo-4-(2-ethyl-4-methyl-1,3-thiazol-5-yl)pyrimidin-2-yl]amino}-N,N-dimethylbenzenesulphonamide]",,,3.36
"Cc1nc(C(C)C)sc1-c1nc(Nc2cccc(Cl)c2)ncc1Br [Example 922, 5-bromo-N-(3-chlorophenyl)-4-(2-isopropyl-4-methyl-1,3-thiazol-5-yl)pyrimidine-2-amine]",,,4.9
